PMC12643509, “High-throughput screens identify genotype-specific therapeutics for channelopathies” (JCI Insight, 2025)
Where “and” joins values, the source holds several entries; their conditions need not be identical. Equal values may be shown once.

Columns and labels:
[1] = biological target: T1, WT Kv11.1 (Homo sapiens, UniProt Q12809); test: Whole-cell patch-clamp electrophysiology, drug in bath solution, WT; type: cell-based; set-up: expressed in transfected cells; Activation tail currents / Steady-state currents / Time constants of activation (τ): unit not given here; conditions: for Figure 5E value per cell vs Voltage (mV) / Figure 5F value per cell vs Voltage (mV) / Figure 4D value per cell vs Voltage (mV): individual replicates; for Inactivation time constant / Fast deactivation time constant / Slow deactivation time constant: Evacetrapib (15 µmol/L); for Peak tail current: Evacetrapib 15 µmol/L
T1 sequence (Q12809 whole entry): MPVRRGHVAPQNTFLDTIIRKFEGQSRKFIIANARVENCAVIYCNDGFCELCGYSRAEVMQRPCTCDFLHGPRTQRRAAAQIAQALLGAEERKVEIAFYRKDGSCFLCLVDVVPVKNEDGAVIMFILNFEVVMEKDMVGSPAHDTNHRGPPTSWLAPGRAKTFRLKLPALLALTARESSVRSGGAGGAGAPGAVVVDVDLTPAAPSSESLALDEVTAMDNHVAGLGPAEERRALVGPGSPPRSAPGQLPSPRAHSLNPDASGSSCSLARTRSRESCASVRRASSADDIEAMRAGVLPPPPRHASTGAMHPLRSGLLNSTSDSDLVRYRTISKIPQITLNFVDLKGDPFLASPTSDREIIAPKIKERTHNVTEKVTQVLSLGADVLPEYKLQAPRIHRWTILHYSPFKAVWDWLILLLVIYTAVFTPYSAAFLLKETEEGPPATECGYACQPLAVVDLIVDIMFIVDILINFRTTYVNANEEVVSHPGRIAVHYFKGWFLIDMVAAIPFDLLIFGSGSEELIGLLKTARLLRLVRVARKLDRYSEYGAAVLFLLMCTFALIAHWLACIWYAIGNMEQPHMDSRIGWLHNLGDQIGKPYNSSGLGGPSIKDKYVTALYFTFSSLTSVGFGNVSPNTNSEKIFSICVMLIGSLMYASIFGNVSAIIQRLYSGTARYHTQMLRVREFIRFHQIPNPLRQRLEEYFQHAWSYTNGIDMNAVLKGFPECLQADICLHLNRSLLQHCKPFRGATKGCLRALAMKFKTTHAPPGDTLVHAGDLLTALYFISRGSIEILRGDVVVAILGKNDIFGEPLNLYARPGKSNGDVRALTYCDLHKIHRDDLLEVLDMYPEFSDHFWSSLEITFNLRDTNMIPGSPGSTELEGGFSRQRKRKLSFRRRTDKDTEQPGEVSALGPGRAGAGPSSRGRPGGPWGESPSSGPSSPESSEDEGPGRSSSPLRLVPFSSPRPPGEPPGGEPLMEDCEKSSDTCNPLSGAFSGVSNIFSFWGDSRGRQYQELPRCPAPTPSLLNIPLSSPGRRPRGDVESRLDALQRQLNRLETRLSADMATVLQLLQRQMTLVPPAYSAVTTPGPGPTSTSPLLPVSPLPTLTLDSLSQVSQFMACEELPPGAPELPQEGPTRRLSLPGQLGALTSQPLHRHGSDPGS
Source text: Peak stea dy-sta te current was
Tail current was fit with a […]

[2] = system: C57BL/6J mice; test: Mouse ECG analysis (cardiac safety); type: in vivo; set-up: QTc / QT: unit not given here
[3] = system: Kv11.1 missense variants, residues 536–628; test: Multiplexed assay of variant effect (saturation mutagenesis, FACS surface trafficking)
Experimental: (§1) Cells were grown to 40%–60% confluence and transiently transfected first with Bxb1 integrase (pCAG–NLS–HA–Bxb1) using FuGENE 6 (Promega), followed by KCNH2 variant libraries 24 hours later. On day 6, cells were induced with 1 μg/mL doxycycline. Integrated cell lines expressed a single variant alongside mCherry, while nonintegrated cells were tagBFP-positive and mCherry-negative.
(§2) Saturation mutagenesis of Kv11.1 was performed using a modified promoterless dsRed-Express derivative plasmid. WT KCNH2 was inserted adjacent to an AttB site, and NdeI/BglII sites were created via synonymous mutations. […] These were purified, ligated, and electroporated into MegaX DH10B Electrocomp Cells.
(§3) The mutant pool was subcloned into the AttB-KCNH2-HA:IRES:mCherry plasmid, with an 18-mer poly-N barcode inserted adjacent to the AttB site. Each cloning step was validated via Sanger sequencing. To link barcodes with mutants, the library was digested, ligated, and PCR amplified. Final products were purified and sequenced on an Illumina NovaSeq. Reads were analyzed with a custom Python script to identify barcodes linked to single mutations.
(§4) HEK293T cells were cultured in αMEM (Corning) with 10% FBS and 1% GlutaMax at 37°C with 5% CO2. The KCNH2 variant library was integrated into a HEK293T “landing pad” cell line containing an AttP site between a tetracycline-inducible promoter and a blue fluorescent protein gene.
(§5) Cells were transfected using FuGENE 6, first with a plasmid expressing Bxb1 integrase (pCAG–NLS–HA–Bxb1) and then, the following day, with the KCNH2 variant library. On day 6, cells were incubated with 1 μg/mL doxycycline to induce expression from the landing pad’s promoter. Resulting stable cell lines expressed one variant and mCherry, while nonintegrated cells expressed tagBFP and were mCherry-negative.
(§6) Stable HEK293T cell lines were cultured in T75 flasks until 80%–90% confluent. […] After treatments, high-throughput quantitation was performed at the Vanderbilt University Medical Center Flow Cytometry Shared Resource Core (FCSR).
(§7) The treated HEK293T library was sorted via FACS to isolate cells with high mCherry expression and successful AttB plasmid integration. […] Sorted cells were repopulated and prepared for freezing, pelleted at 1 million cells per tube.
(§8) DNA was isolated from cell pools (100 μL QuickExtract per 1 million cells) and the barcode was PCR amplified for Illumina sequencing using Q5 polymerase (25–35 cycles). Sequencing reads were demultiplexed and analyzed using custom Python scripts (https://github.com/kroncke-lab/KCNH2_DMS) to identify barcodes.
(§9) The scores were then averaged across the 4 replicate experiments (separate transfections of the mutant library pool).

[4] = biological target: Kv11.1 missense variants, residues 536–628 (Homo sapiens, UniProt Q12809, Y475A); test: as above; conditions: missense variant Y475A
Kv11.1 missense variants, residues 536–628 (Homo sapiens, UniProt Q12809, Y475A), sequence (Q12809 whole entry Y475A, the tested form may be a part): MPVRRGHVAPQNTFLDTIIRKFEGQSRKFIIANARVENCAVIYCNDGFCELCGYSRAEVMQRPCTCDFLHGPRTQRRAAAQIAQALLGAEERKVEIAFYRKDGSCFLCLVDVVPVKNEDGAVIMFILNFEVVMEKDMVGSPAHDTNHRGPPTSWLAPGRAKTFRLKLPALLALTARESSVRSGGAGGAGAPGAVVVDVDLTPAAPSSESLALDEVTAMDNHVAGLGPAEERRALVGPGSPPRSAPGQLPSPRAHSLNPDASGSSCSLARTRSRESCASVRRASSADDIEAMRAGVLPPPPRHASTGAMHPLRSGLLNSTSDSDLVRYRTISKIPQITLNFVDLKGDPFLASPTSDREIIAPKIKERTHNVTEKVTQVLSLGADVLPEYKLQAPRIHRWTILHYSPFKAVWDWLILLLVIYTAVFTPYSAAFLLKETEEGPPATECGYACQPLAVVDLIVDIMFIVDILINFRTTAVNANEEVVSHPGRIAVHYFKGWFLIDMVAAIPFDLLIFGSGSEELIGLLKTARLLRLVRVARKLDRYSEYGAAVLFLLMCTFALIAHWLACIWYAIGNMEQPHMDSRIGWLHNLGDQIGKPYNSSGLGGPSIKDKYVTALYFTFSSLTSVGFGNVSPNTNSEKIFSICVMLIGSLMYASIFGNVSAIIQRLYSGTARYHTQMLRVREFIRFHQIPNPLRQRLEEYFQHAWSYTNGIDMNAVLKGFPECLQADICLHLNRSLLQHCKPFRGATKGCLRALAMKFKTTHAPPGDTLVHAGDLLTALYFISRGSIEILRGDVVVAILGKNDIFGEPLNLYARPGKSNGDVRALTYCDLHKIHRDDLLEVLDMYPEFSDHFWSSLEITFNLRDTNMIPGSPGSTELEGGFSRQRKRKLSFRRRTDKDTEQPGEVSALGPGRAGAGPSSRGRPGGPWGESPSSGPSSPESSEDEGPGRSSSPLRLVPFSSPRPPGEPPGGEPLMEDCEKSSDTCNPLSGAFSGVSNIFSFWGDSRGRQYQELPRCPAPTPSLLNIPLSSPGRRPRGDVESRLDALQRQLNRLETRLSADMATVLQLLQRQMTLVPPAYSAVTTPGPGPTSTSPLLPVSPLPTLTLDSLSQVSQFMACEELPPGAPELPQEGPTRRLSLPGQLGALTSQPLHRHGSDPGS
Experimental: as §1, §2, §3, §4, §5, §6, §7, §8, §9

[5] = biological target: T1, WT Kv11.1; conditions: 24 hour and washout, individual wells
Source text: plot of hits tested for 24-h our WT toxicity. Each point repres ents the med ia n robust Z score
after 24-hour treatm ent and washout in cells ex pressing WT.
robust Z scores be low bas eli ne function).
second ary screens w ere perform ed i n triplicate us ing 1 0 µ M drug treatme nt to assess: 1)
acute channel block, measur ed after a 15-minute inc ubati on with the drug present duri ng
recordi ngs; and 2) t oxicit y in W T channels, assesse d af t er a 24-hour drug ex posure fol low ed
(C) Tl+-measurements after 24-hour treatment and washout in HEK cells

[6] = cited from earlier work
[7] = mouse, in vivo, ip, 40 mg/kg; cited from earlier work
[8] = mouse ECG, individual animals (Figure S5)
[9] = mouse ECG, individual animals (Figure S5), in ms (unit assumed)

SMILES: Cc1cc(C)c2c(c1)[C@@H](N(Cc1cc(C(F)(F)F)cc(C(F)(F)F)c1)c1nnn(C)n1)CCCN2C[C@H]1CC[C@H](C(=O)O)CC1 [Evacetrapib, evacetrapib]
- Figure 5E value per cell vs Voltage (mV) ([1]; Voltage -100 mV): 366.452 and 329.996 and 269.807 and 269.273 and 487.907 and 220.859 and 396.726 and 472.93
- Figure 5F value per cell vs Voltage (mV) ([1]; Voltage -100 mV): 2314.55 and 1511.55 and 907.537 and 927.568 and 1874.88 and 839.178 and 1131.37 and 2375.79
- Figure 4D value per cell vs Voltage (mV) ([1]; Voltage -110 mV): 4.757 and 4.592 and 3.934 and 3.367 and 4.027 and 3.635 and 4.594 and 4.969
- Figure 5E value per cell vs Voltage (mV) ([1]; Voltage -110 mV): 253.98 and 258.663 and 186.827 and 175.481 and 304.962 and 138.114 and 283.639 and 296.398
- Figure 5F value per cell vs Voltage (mV) ([1]; Voltage -110 mV): 1302.55 and 1153.11 and 698.663 and 755.178 and 1277.44 and 611.635 and 865.285 and 1384.34
- Figure 4D value per cell vs Voltage (mV) ([1]; Voltage -120 mV): 3.611 and 3.4981 and 2.97 and 2.532 and 3.293 and 2.583 and 3.34 and 3.894
- Figure 5E value per cell vs Voltage (mV) ([1]; Voltage -120 mV): 244.589 and 219.981 and 132.908 and 108.36 and 189.369 and 89.3521 and 190.069 and 167.699
- Figure 5F value per cell vs Voltage (mV) ([1]; Voltage -120 mV): 3324.93 and 1104 and 582.988 and 644.385 and 999.7 and 579.372 and 805.065 and 656.376
- Inactivation time constant ([1]; Voltage step 0, WT): 11.1 ± 0.6 ms
- Inactivation time constant ([1]; Voltage step 10, WT): 8.5 ± 0.3 ms
- Inactivation time constant ([1]; Voltage step 20, WT): 6.3 ± 0.2 ms
- Inactivation time constant ([1]; Voltage step 30, WT): 4.6 ± 0.2 ms
- Inactivation time constant ([1]; Voltage step 40, WT): 3.4 ± 0.2 ms
- Inactivation time constant ([1]; Voltage step 50, WT): 2.6 ± 0.2 ms
- Inactivation time constant ([1]; Voltage step 60, WT): 2.1 ± 0.1 ms
- Inactivation time constant ([1]; Voltage step 70, WT): 1.6 ± 0.1 ms
- Peak tail current ([1]; Voltage step (mV) 0, WT, mean±SD): 66.0±31.5 pA/pF
- Peak tail current ([1]; Voltage step (mV) 10, WT, mean±SD): 53.8±28.6 pA/pF
- Peak tail current ([1]; Voltage step (mV) 20, WT, mean±SD): 43.6±25.2 pA/pF
- Peak tail current ([1]; Voltage step (mV) 30, WT, mean±SD): 34.5±20.7 pA/pF
- Peak tail current ([1]; Voltage step (mV) 40, WT, mean±SD): 28.0±16.9 pA/pF
- Peak tail current ([1]; Voltage step (mV) -10, WT, mean±SD): 78.0±33.4 pA/pF
- Peak tail current ([1]; Voltage step (mV) -20, WT, mean±SD): 89.2±35.1 pA/pF
- Peak tail current ([1]; Voltage step (mV) -30, WT, mean±SD): 95.9±34.9 pA/pF
- Peak tail current ([1]; Voltage step (mV) -40, WT, mean±SD): 95.8±33.5 pA/pF
- Peak tail current ([1]; Voltage step (mV) -50, WT, mean±SD): 86.7±30.0 pA/pF
- Peak tail current ([1]; Voltage step (mV) -60, WT, mean±SD): 68.2±25.6 pA/pF
- Peak tail current ([1]; Voltage step (mV) -70, WT, mean±SD): 41.5±21.4 pA/pF
- Peak tail current ([1]; Voltage step (mV) -80, WT, mean±SD): 7.2±20.3 pA/pF
- Peak tail current ([1]; Voltage step (mV) -90, WT, mean±SD): -32.8±24.4 pA/pF
- Peak tail current ([1]; Voltage step (mV) -100, WT, mean±SD): -76.7±33.7 pA/pF
- Peak tail current ([1]; Voltage step (mV) -110, WT, mean±SD): -125.2±46.2 pA/pF
- Peak tail current ([1]; Voltage step (mV) -120, WT, mean±SD): -176.7±61.8 pA/pF
- Inactivation time constant ([1]; Voltage step -10, WT): 13.6 ± 0.7 ms
- Inactivation time constant ([1]; Voltage step -20, WT): 15.5 ± 0.9 ms
- Fast deactivation time constant ([1]; Voltage step -60, WT): 801.3 ± 344.8 ms
- Slow deactivation time constant ([1]; Voltage step -60, WT): 6986.4 ± 2967.3 ms
- Fast deactivation time constant ([1]; Voltage step -70, WT): 866.4 ± 104.0 ms
- Slow deactivation time constant ([1]; Voltage step -70, WT): 3787.8 ± 1272.5 ms
- Fast deactivation time constant ([1]; Voltage step -90, WT): 393.5 ± 46.0 ms
- Slow deactivation time constant ([1]; Voltage step -90, WT): 2093.9 ± 1091.1 ms
- Fast deactivation time constant ([1]; Voltage step -100, WT): 351.7 ± 97.5 ms
- Slow deactivation time constant ([1]; Voltage step -100, WT): 1485.3 ± 634.8 ms
- Fast deactivation time constant ([1]; Voltage step -110, WT): 237.3 ± 62.3 ms
- Slow deactivation time constant ([1]; Voltage step -110, WT): 1006.0 ± 306.8 ms
- Fast deactivation time constant ([1]; Voltage step -120, WT): 167.8 ± 54.1 ms
- Slow deactivation time constant ([1]; Voltage step -120, WT): 1087.1 ± 925.0 ms
- rate of activation ([1]; WT): decelerated the rate of activation
- rate of deactivation ([1]; WT): slowed the rate of deactivation
- rate of inactivation ([1]; WT channels): did not affect the rate of inactivation
- recovery from inactivation ([1]; WT channels): slight delay in the reopening from inactivation
- Time constants of activation (τ) ([1]; WT, evacetrapib 15 μmol/L, individual cells): 764.055 and 877.888 and 1509 and 938.338 and 764.764 and 413.052
- Activation τ ([1]; WT, evacetrapib 15 μmol/L, mean ± SD): 877 ± 360 ms
- Max (voltage dependence of activation) ([1]; WT, mean±SD, N=11): 78.2 ± 26.7 pA/pF
- Slope factor (voltage dependence of activation) ([1]; WT, mean±SD, N=11): 9.0 ± 1.6
- V1/2 (voltage dependence of activation) ([1]; WT, mean±SD, N=11): -4.0 ± 8.4 mV
- WT currents ([1]; whole-cell patch-clamp): increases WT currents
- ECG parameters, including the QT interval ([2]; mice, 40 mg/kg intraperitoneally, 30 minutes post-drug): No significant differences
- P duration [2, 8]: 13.6667 and 11.3333 and 10.6667 and 11.6667 and 9 and 13.3333 and 12.3333
- PR interval [2, 8]: 56.3333 and 38.3333 and 42.3333 and 46.6667 and 44.6667 and 41.6667
- QT [2, 8]: 31.3333 and 39.3333 and 34 and 35.3333 and 42.3333
- QTc [2, 8]: 30.5782 and 35.4177 and 28.9078 and 33.1412 and 36.2561 and 31.0292 and 33.811
- QRS [2, 9]: 12 and 11 and 10.6667 and 10.3333
- RR [2, 9]: 105 and 123.333 and 138.333 and 113.667 and 136.333 and 129.667 and 135.333
- share of the 546 variants rescued by either drug that evacetrapib improved ([3]; 10 μmol/L, 24 hours): 45%
- share of known pathogenic variants in the pore region with improved trafficking ([3]; 16 out of 94): 17%
- share of all trafficking-deficient variants in this channel segment with improved trafficking ([3]; 248 out of 971, 10 μmol/L, 24 hours): 25%
- number of trafficking-deficient variants with improved trafficking ([3]; of 971 variants with ≥90% loss of surface expression, 10 μmol/L, 24 hours): 248
- number of known pathogenic variants in the pore region with improved trafficking ([3]; out of 94, 10 μmol/L, 24 hours): 16
- score (Figure 6B) [4]: 25.1035
- Changes in WT function (thallium flux) [5]: 0.1125 and 0.1113 and 0.1215
- mean QT interval compared to placebo ([6]; 71 healthy patients, thorough QT study): did not significantly shorten the mean QT interval
- shorter QT interval compared with baseline ([6]; at 12 hours): 7 ms
- peak plasma levels [7]: 35 µmol/L
